Measurements: US8309550B2, “Kinase inhibitors and their use as pharmaceutical agents” (Shanghai Genomics, Inc., priority 2011, dated 2012)
Where two headings read alike, the source gives them in different places.

What was measured:
CDK9T1 = CDK9T1 (Homo sapiens, UniProt P50750); test: Kinase assay CDK9T1 (Table I); assay type: biochemical; details: read-out: Kinase inhibition, IC50 CDK9T1
HeLa cells = test: 72 h MTT cytotoxicity assay HeLa; assay type: cell-based; details: Homo sapiens
Text: (§1) MIT cytotoxicity assay. The compounds of the invention were subjected to a standard cellular proliferation assay using human cell lines. HeLa cells (Human cervix adenocarcinoma cell line, ATCC NO, CCL-2); A549 cells (Human lung carcinoma cells line, ATCC NO, CCL-185); U2OS cells (Human osteosarcoma cell line, ATCC NO, HTB-96); Eca-109 cells (Human esophageal carcinoma cell line); HepG2 (Human hepatocellular liver carcinoma cell line, ATCC NO, HB-8065); K562 cells (Human chronic myelogenous leukemia cell line, ATCC NO, CCL-243); SK-MEL-28 (Human malignant melanoma cell line, ATCC NO, HTB-72); Molt-4 (Human acute lymphoblastic leukemia cell line, ATCC NO, CRL-1582); H460 (Human large cell lung cancer cell line, ATCC NO, HTB-177); MDA-MB-231 (Human breast adenocarcinoma cell line, ATCC NO, HTB-26); MCF7 (Human breast adenocarcinoma cell line, ATCC NO, HTB-22); ACHN (Human renal cell adenocarcinoma cell line, ATCC NO, CRL-1611); PC-3M (Human prostate adenocarcinoma cell line, ATCC NO CRL-1435); HL60 (Human acute promyelocytic leukemia cell line, ATCC NO, CCL-240); THP-1 (Human acute monocytic leukemia, ATCC NO, TIB-202); Jurkat (Human acute T cell leukemia cell line, ATCC NO, CRL-2063); HCT-116 (Human colorectal carcinoma cell line, ATCC NO, CCL-247); HT-29 (Human colorectal adenocarcinoma cell line, ATCC NO, HTB-38™); WI-38 (Human normal lung cell line, ATCC NO, CCL-75); MRC-5 (Human normal lung cell line, ATCC NO, CCL-171).
(§2) HepG2, MDA-MB-231, WI-38 and MRC-5 cells were obtained from Shanghai Institute of Cell Biology, Chinese Academy of Sciences (Shanghai 200031, China). A549, HeLa, K562, MCF7, ACHN, H460, U2OS, Eca-109, MCF7, HL60, THP-1, Jurkat, HCT-116, HT-29, PC-3M, SK-MEL-28, Molt-4, H460 and […] cells were purchased from ATCC (American Type Culture Collection, USA).
(§3) Standard 72 h MTT (thiazolye blue; 3-[4,5-dimethylthiazol-2-yl]-2,5-diphenyltetrazolium bromide) assays were performed. Briefly, the cell lines used in this study were recovered and cultured according to the conditions recommended. 4000 cells per well were seeded into 96-well plates according to doubling time and incubated overnight at 37° C. Compounds were prepared in DMSO and a ½ dilution series in 100 μl cell culture media, added to cells (in duplicates) with the final DMSO concentration of 0.025%, and incubated for 72 hrs at 37° C. MTT solution (5 mg/ml) was added at 10 μl per well and incubated in the dark at 37° C. for 4 hr. Culture medium and MTT solution was removed. MTT dye was solubilised with 100 μl per well of DMSO with agitation. Absorbance was read at 562 nm and data analyzed using Sigmoid curve-fitting software Origin 6.0 (MicroCal, LLC, USA) to determine IC50 value.

A549 cells = test: 72 h MTT cytotoxicity assay A549; assay type: cell-based; details: Homo sapiens; A549, 72 hrs
Text: as §1, §2, §3

Eca-109 cells = test: 72 h MTT cytotoxicity assay Eca-109; assay type: cell-based; details: Homo sapiens; Eca-109, 72 hrs
Text: as §1, §2, §3

K562 cells = test: 72 h MTT cytotoxicity assay K562; assay type: cell-based; details: Homo sapiens; K562, 72 hrs
Text: as §1, §2, §3

MCF7 = test: 72 h MTT cytotoxicity assay MCF7; assay type: cell-based; details: Homo sapiens; MCF7, 72 hrs
Text: as §1, §2, §3

SK-MEL-28-luc = test: 72 h MTT cytotoxicity assay SK-MEL-28-luc; assay type: cell-based; details: Homo sapiens
Text: as §1, §2, §3

Molt-4-luc = test: 72 h MTT cytotoxicity assay Molt-4-luc; assay type: cell-based; details: Homo sapiens
Text: as §1, §2, §3

MDA-MB-231-luc = test: 72 h MTT cell viability MDA-MB-231-luc; assay type: cell-based; details: Homo sapiens
Text: as §1, §2, §3

Jurkat = test: 72 h MTT cell viability Jurkat; assay type: cell-based; details: Homo sapiens
Text: as §1, §2, §3

HCT 116 = test: 72 h MTT cell viability HCT 116; assay type: cell-based; details: Homo sapiens
Text: as §1, §2, §3

HT-29 = test: 72 h MTT cell viability HT-29; assay type: cell-based; details: Homo sapiens, read-out: Cell Viability IC50 HT-29
Text: as §1, §2, §3

WI-38 = test: 72 h MTT cell viability WI-38 (normal lung); assay type: cell-based; details: Homo sapiens; WI-38, normal lung cell line
Text: as §1, §2, §3

MRC-5 = test: 72 h MTT cell viability MRC-5 (normal lung); assay type: cell-based; details: Homo sapiens, MRC5; MRC-5, normal lung cell line; read-out: Cell Viability IC50 MRC-5
Text: as §1, §2, §3

CDK9T1, sequence (P50750 whole entry): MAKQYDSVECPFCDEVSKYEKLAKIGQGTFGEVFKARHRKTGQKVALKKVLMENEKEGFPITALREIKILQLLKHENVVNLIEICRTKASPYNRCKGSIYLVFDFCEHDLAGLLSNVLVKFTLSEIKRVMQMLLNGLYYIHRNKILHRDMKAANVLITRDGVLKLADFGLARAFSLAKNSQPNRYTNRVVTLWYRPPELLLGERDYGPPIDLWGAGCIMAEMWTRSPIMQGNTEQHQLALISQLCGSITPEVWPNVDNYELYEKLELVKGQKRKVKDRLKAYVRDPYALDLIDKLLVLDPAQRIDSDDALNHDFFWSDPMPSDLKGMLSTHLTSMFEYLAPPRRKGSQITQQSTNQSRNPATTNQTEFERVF
CDK9T1, sequence (O60563 whole entry partner): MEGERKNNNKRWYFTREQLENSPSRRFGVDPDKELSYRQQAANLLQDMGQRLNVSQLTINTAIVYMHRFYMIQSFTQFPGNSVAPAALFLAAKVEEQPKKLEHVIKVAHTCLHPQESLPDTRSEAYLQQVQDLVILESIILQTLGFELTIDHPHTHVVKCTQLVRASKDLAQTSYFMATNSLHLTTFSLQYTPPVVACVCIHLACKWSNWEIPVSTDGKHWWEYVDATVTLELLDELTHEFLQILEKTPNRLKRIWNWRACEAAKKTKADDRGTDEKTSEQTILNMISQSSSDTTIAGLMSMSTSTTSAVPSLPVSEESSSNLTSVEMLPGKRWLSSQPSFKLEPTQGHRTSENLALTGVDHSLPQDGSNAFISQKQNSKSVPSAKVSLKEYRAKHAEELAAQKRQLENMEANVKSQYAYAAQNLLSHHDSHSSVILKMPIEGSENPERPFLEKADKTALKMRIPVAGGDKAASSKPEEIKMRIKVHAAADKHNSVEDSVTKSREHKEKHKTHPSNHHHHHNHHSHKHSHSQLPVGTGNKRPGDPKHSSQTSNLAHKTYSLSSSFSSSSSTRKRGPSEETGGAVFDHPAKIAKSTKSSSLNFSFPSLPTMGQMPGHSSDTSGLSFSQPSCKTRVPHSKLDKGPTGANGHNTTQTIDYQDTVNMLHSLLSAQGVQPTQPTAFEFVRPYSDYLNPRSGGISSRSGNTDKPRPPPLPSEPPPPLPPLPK

IC50 (CDK9T1)	IC50 (MDA-MB-231-luc)	IC50 (Jurkat; Table III, read-out: Cellular effect in mammalian cells IC50 Jurkat)	IC50 (HCT 116; HCT116, Table III, read-out: Cellular effect in mammalian cells IC50 HCT116)	IC50 (HT-29)	IC50 (Jurkat; read-out: Cell Viability IC50 Jurkat)	IC50 (HCT 116; read-out: Cell Viability IC50 HCT 116)	Structure (SMILES)	IC50 (HeLa cells)	IC50 (A549 cells)	IC50 (Eca-109 cells)	IC50 (K562 cells)	IC50 (MCF7)	IC50 (SK-MEL-28-luc)	IC50 (Molt-4-luc)	IC50 (WI-38)	IC50 (MRC-5)
14 nM	3300 nM	1310 nM	2100 nM	810 nM	–	–	CCn1cc(-c2ccnc(Nc3cccc(S(N)(=O)=O)c3)n2)c2cccnc21 [Compound 18, 3-(4-(1-Ethyl-1H-pyrrolo[2,3-b]pyridin-3-yl)pyrimidin-2-ylamino)benzenesulfonamide]	1700 nM	1210 nM	11700 nM	6690 nM	710 nM	8590 nM	1050 nM	11100 nM	13300 nM
0.7 nM	–	–	–	50 nM	2.5 nM	5 nM	CCCn1cc(-c2ccnc(Nc3ccc(S(N)(=O)=O)cc3)n2)c2ccncc21 [Compound 112, 4-(4-(1-Propyl-1H-pyrrolo[2,3-c]pyridin-3-yl)pyrimidin-2-ylamino)benzenesulfonamide]	0.4 nM	30 nM	10 nM	1.1 nM	1.4 nM	3.8 nM	20 nM	> 10000 nM	> 10000 nM
